Measurements from PMC10385442, “Galactoside-Based Molecule Enhanced Antimicrobial Activity through Acyl Moiety Incorporation: Synthesis and In Silico Exploration for Therapeutic Target” (Pharmaceuticals, 2023).
Converted amounts (≈) assume the structure as drawn. Where two headings read alike, the source gives them in different places.

Key:
[1] = test system: B. subtilis (G + ve) (ATCC 6633); test: Disc diffusion antibacterial susceptibility; type: cell-based, Bacillus subtilis; settings: B. subtilis (ATCC 6633), triplicate, NI = No inhibition
Excerpt: (§1) The methodology employed to determine the antibacterial properties of the synthesized compounds (each compound dissolved in dimethyl sulfoxide 7% DMSO) involved the use of the disc diffusion approach. This was done following a previously described method with slight modifications. First, an inoculum was obtained from a bacterial colony and diluted to a concentration of 0.5 McFarland standard in sterile saltwater containing 0.9% NaCl. The suspension was then transferred to a sterile tube and allowed to settle for 5 min, after which the top homogeneous solution was transferred to another sterile tube. The concentration of the solution was adjusted to a 0.5 McFarland turbidity standard to obtain an inoculum of approximately 10^6 CFU/mL.

[2] = test system: E. coli (G − ve) (ATCC 8739); test: Disc diffusion antibacterial susceptibility; type: cell-based, Escherichia coli; settings: E. coli (ATCC 8739), triplicate, NI = No inhibition
Excerpt: as §1

[3] = test system: P. aeruginosa (G − ve) (ATCC 9027); test: Disc diffusion antibacterial susceptibility; type: cell-based; settings: for Diameter of Inhibition Zones: P. aeruginosa (ATCC 9027), triplicate, NI = No inhibition; for antibacterial activity category: P. aeruginosa, category by zone
Excerpt: as §1

[4] = test system: S. aureus (G + ve) (BTCC 19); test: Disc diffusion antibacterial susceptibility; type: cell-based; settings: for Diameter of Inhibition Zones: S. aureus (BTCC 19), triplicate, NI = No inhibition
Excerpt: as §1

[5] = test system: S. typhi (G − ve) (AE 14612); test: Disc diffusion antibacterial susceptibility; type: cell-based, Salmonella typhi; settings: S. typhi (AE 14612), triplicate, NI = No inhibition
Excerpt: as §1

[6] = test system: Aspergillus flavus (ATCC 204304); test: Antifungal poisoned food method, mycelial growth; type: cell-based; settings: NI: no inhibition
Experimental: (§2) The food poisoning method with potato dextrose agar (PDA) as the culture medium was used to test the antifungal action. Twenty milliliters of 45 °C sterilized, melted potato dextrose agar medium (PDA) was placed into sterile 70-mm glass Petri plates. The “poisoned food” method was used to determine how the synthesized MDGP (1) derivatives affected the growth of the fungal mycelium.

[7] = test system: Aspergillus niger (ATCC 16404); test: Antifungal poisoned food method, mycelial growth; type: cell-based; settings: NI: no inhibition
Experimental: as §2

B. subtilis (ATCC 6633) = test: MIC and MBC by broth dilution; type: cell-based, Bacillus subtilis
Experimental: (§3) To determine the minimum inhibitory concentration (MIC) of the synthesized compounds against the tested bacterial strains, a dilution method was employed. The objective was to establish the lowest concentration of the compound at which approximately 90% of bacterial growth was inhibited. To this end, a bacterial suspension of 300 μL at a concentration of 0.5 McFarland standard was seeded into individual tubes of 9 mL nutrient broth, with each tube receiving 1 mL of different concentrations of the synthesized compound at twofold serial dilutions and 7% DMSO, which served as the negative control. The tubes were then kept at 37 °C for a whole night. The MIC and MBC values were determined by using the naked eye to compare the turbidity of the tube to that of a reference medium with a 0.5 McFarland value.

S. typhi (AE 14612) = test: MIC and MBC by broth dilution; type: cell-based, Salmonella typhi
Experimental: as §3

E. coli (ATCC 8739) = test: MIC and MBC by broth dilution; type: cell-based, Escherichia coli; settings: for MBC: eradicates 99.9% of inoculum
Experimental: as §3

B. cereus (BTCC 19) = test: MIC and MBC by broth dilution; type: cell-based; settings: for MBC: eradicates 99.9% of inoculum
Experimental: as §3

[8] = test system: P. aeruginosa (ATCC 9027); test: MIC and MBC by broth dilution; type: cell-based
Experimental: as §3

[9] = Bacillus subtilis, ATCC6633, eradicates 99.9% of inoculum, read-out: MBC
[10] = Bacillus subtilis, ATCC6633, read-out: MIC
[11] = S. typhi, eradicates 99.9% of inoculum
[12] = Escherichia coli, ATCC8739, E. coli, read-out: MBC
[13] = Escherichia coli, ATCC8739, E. coli, read-out: MIC
[14] = Pseudomonas aeruginosa, ATCC9027, eradicates 99.9% of inoculum, read-out: MBC
[15] = Pseudomonas aeruginosa, ATCC9027, read-out: MIC

CC[C@H]1OC(=O)[C@H](C)[C@@H](O[C@H]2C[C@@](C)(OC)[C@@H](O)[C@H](C)O2)[C@H](C)[C@@H](O[C@@H]2O[C@H](C)C[C@H](N(C)C)[C@H]2O)[C@](C)(O)C[C@@H](C)CN(C)[C@H](C)[C@@H](O)[C@]1(C)O [Azithromycin, reference compound]
Diameter of Inhibition Zones [1]: ** 18.25 ± 0.2 mm
Diameter of Inhibition Zones [2]: ** 17.25 ± 0.2 mm
Diameter of Inhibition Zones [3]: ** 18.5 ± 0.3 mm
Diameter of Inhibition Zones [4]: ** 17.50 ± 0.2 mm
Diameter of Inhibition Zones [5]: ** 18.0 ± 0.1 mm

CO[C@@H]1O[C@H](COC(=O)c2ccccc2Br)[C@H](O)[C@H](O)[C@H]1O [Compound 2, Methyl 6-O-(2-bromobenzoyl)-β-D-galactopyranoside]
Diameter of Inhibition Zones [3]: * 15.00 ± 0.1 mm
antibacterial activity category [3]: high activity (high activity at 15 mm or more)
Diameter of Inhibition Zones [4]: 10.50 ± 0.2 mm
% Inhibition of Fungal Mycelial Growth [6]: * 85.66 ± 0.9%
% Inhibition of Fungal Mycelial Growth [7]: * 72.88 ± 1.0%
Diameter of Inhibition Zones [5]: 11.25 ± 0.2 mm

CCCCCCCCCCCC(=O)O[C@H]1[C@@H](OC(=O)CCCCCCCCCCC)[C@@H](COC(=O)c2ccccc2Br)O[C@@H](OC)[C@@H]1OC(=O)CCCCCCCCCCC [Compound 3, Methyl 6-O-(2-bromobenzoyl)-2,3,4-tri-O-lauroyl-β-D-galactopyranoside]
Diameter of Inhibition Zones [1]: * 13.00 ± 0.1 mm
Diameter of Inhibition Zones [2]: 11.00 ± 0.2 mm
Diameter of Inhibition Zones [3]: 11.25 ± 0.3 mm
Diameter of Inhibition Zones [4]: * 15.50 ± 0.3 mm
antibacterial activity category ([4]; category by zone): high activity (high activity at 15 mm or more)
% Inhibition of Fungal Mycelial Growth [6]: * 84.02 ± 1.3%
% Inhibition of Fungal Mycelial Growth [7]: * 64.83 ± 1.1%
Diameter of Inhibition Zones [5]: * 12.25 ± 0.1 mm
MIC (B. subtilis (ATCC 6633)): 8000 µg/mL (≈ 8.66 mM)
MBC (B. subtilis (ATCC 6633); [9]): 16000 µg/mL (≈ 17.3 mM)
MIC (B. subtilis (ATCC 6633); [10]): 8000 µg/mL (≈ 8.66 mM)
MBC (B. subtilis (ATCC 6633); eradicates 99.9% of inoculum): 16000 µg/mL (≈ 17.3 mM)
MBC (S. typhi (AE 14612); [11]): 8000 µg/mL (≈ 8.66 mM)
MBC (S. typhi (AE 14612); Salmonella enterica, TYPHI): 8000 µg/mL (≈ 8.66 mM)
MIC (S. typhi (AE 14612); Salmonella enterica, TYPHI): 125 µg/mL (≈ 0.135 mM)
MIC (E. coli (ATCC 8739); E. coli): 2000 µg/mL (≈ 2.16 mM)
MBC (E. coli (ATCC 8739); E. coli): 16000 µg/mL (≈ 17.3 mM)
MBC (E. coli (ATCC 8739); [12]): 16000 µg/mL (≈ 17.3 mM)
MIC (E. coli (ATCC 8739); [13]): 2000 µg/mL (≈ 2.16 mM)
MIC (B. cereus (BTCC 19)): 8000 µg/mL (≈ 8.66 mM)
MBC (B. cereus (BTCC 19); Bacillus cereus, read-out: MBC): 8000 µg/mL (≈ 8.66 mM)
MIC (B. cereus (BTCC 19); Bacillus cereus, read-out: MIC): 8000 µg/mL (≈ 8.66 mM)
MBC (B. cereus (BTCC 19)): 8000 µg/mL (≈ 8.66 mM)
MBC [8, 14]: 16000 µg/mL (≈ 17.3 mM)
MIC [8, 15]: 250 µg/mL (≈ 0.271 mM)
MBC ([8]; eradicates 99.9% of inoculum): 16000 µg/mL (≈ 17.3 mM)

CCCCCCCCCCCCCC(=O)O[C@H]1[C@@H](OC(=O)CCCCCCCCCCCCC)[C@@H](COC(=O)c2ccccc2Br)O[C@@H](OC)[C@@H]1OC(=O)CCCCCCCCCCCCC [Compound 4, Methyl 6-O-(2-bromobenzoyl)-2,3,4-tri-O-myristoyl-β-D-galactopyranoside]
% Inhibition of Fungal Mycelial Growth [7]: * 71.19 ± 1.0%

CO[C@@H]1O[C@H](COC(=O)c2ccccc2Br)[C@H](OC(=O)c2cccc(Cl)c2)[C@H](OC(=O)c2cccc(Cl)c2)[C@H]1OC(=O)c1cccc(Cl)c1 [Compound 5, Methyl 6-O-(2-bromobenzoyl)-2,3,4-tri-O-(3-chlorobenzoyl)-β-D-galactopyranoside]
Diameter of Inhibition Zones [3]: * 18.25 ± 0.3 mm
antibacterial activity category [3]: high activity (high activity at 15 mm or more)
% Inhibition of Fungal Mycelial Growth [6]: * 81.97 ± 1.0%
% Inhibition of Fungal Mycelial Growth [7]: 48.73 ± 1.1%

CO[C@@H]1O[C@H](COC(=O)c2ccccc2Br)[C@H](OC(=O)c2ccc(Cl)cc2)[C@H](OC(=O)c2ccc(Cl)cc2)[C@H]1OC(=O)c1ccc(Cl)cc1 [Compound 6, Methyl 6-O-(2-bromobenzoyl)-2,3,4-tri-O-(4-chlorobenzoyl)-β-D-galactopyranoside]
Diameter of Inhibition Zones [1]: * 12.75 ± 0.1 mm
Diameter of Inhibition Zones [2]: 11.25 ± 0.2 mm
Diameter of Inhibition Zones [3]: 11.50 ± 0.1 mm
Diameter of Inhibition Zones [4]: 11.50 ± 0.3 mm
% Inhibition of Fungal Mycelial Growth [6]: * 81.97 ± 1.2%
% Inhibition of Fungal Mycelial Growth [7]: * 78.81 ± 1.0%
Diameter of Inhibition Zones [5]: * 13.00 ± 0.3 mm
MIC (B. subtilis (ATCC 6633)): 500 µg/mL (≈ 0.631 mM)
MBC (B. subtilis (ATCC 6633); [9]): 16000 µg/mL (≈ 20.2 mM)
MIC (B. subtilis (ATCC 6633); [10]): 500 µg/mL (≈ 0.631 mM)
MBC (B. subtilis (ATCC 6633); eradicates 99.9% of inoculum): 16000 µg/mL (≈ 20.2 mM)
MIC (S. typhi (AE 14612); S. typhi): 2000 µg/mL (≈ 2.52 mM)
MBC (S. typhi (AE 14612); [11]): 8000 µg/mL (≈ 10.1 mM)
MBC (S. typhi (AE 14612); Salmonella enterica, TYPHI): 8000 µg/mL (≈ 10.1 mM)
MIC (S. typhi (AE 14612); Salmonella enterica, TYPHI): 2000 µg/mL (≈ 2.52 mM)
MIC (E. coli (ATCC 8739); E. coli): 1000 µg/mL (≈ 1.26 mM)
MBC (E. coli (ATCC 8739); E. coli): 8000 µg/mL (≈ 10.1 mM)
MBC (E. coli (ATCC 8739); [12]): 16000 µg/mL (≈ 20.2 mM)
MIC (E. coli (ATCC 8739); [13]): 1000 µg/mL (≈ 1.26 mM)
MIC (B. cereus (BTCC 19)): 2000 µg/mL (≈ 2.52 mM)
MBC (B. cereus (BTCC 19); Bacillus cereus, read-out: MBC): 8000 µg/mL (≈ 10.1 mM)
MIC (B. cereus (BTCC 19); Bacillus cereus, read-out: MIC): 2000 µg/mL (≈ 2.52 mM)
MBC (B. cereus (BTCC 19)): 8000 µg/mL (≈ 10.1 mM)
MIC [8]: 8000 µg/mL (≈ 10.1 mM)
MBC [8, 14]: 16000 µg/mL (≈ 20.2 mM)
MIC [8, 15]: 8000 µg/mL (≈ 10.1 mM)
MBC ([8]; eradicates 99.9% of inoculum): 16000 µg/mL (≈ 20.2 mM)

CO[C@@H]1O[C@H](COC(=O)c2ccccc2Br)[C@H](OC(=O)c2ccc(C(C)(C)C)cc2)[C@H](OC(=O)c2ccc(C(C)(C)C)cc2)[C@H]1OC(=O)c1ccc(C(C)(C)C)cc1 [Compound 7, Methyl 6-O-(2-bromobenzoyl)-2,3,4-tri-O-(4-t-butylbenzoyl)-β-D-galactopyranoside]
Diameter of Inhibition Zones [1]: 7.75 ± 0.1 mm
Diameter of Inhibition Zones [2]: 8.50 ± 0.1 mm
Diameter of Inhibition Zones [3]: 7.50 ± 0.3 mm
Diameter of Inhibition Zones [5]: 9.00 ± 0.3 mm

C[C@@H]1[C@H](O)[C@@H](C)/C=C/C=C/CC/C=C/C=C/C=C/C=C/C(O[C@H]2O[C@H](C)[C@@H](O)[C@H](N)[C@@H]2O)CC2O[C@](O)(CC(O)C(O)CCC(O)CC(O)CC(O)CC(=O)O[C@H]1C)CC(O)C2C(=O)O (stereo partly drawn) [Nystatin, reference compound]
% Inhibition of Fungal Mycelial Growth [6]: ** 65.2 ± 1.2%
% Inhibition of Fungal Mycelial Growth [7]: ** 66.7 ± 1.1%
